Results reported in the NIST ThermoML archive (doi:10.1021/acs.jced.5b00527).
Numbers after ± are expanded uncertainties.

Tests used:
[1] = 298.15 K; 101.33 kPa; Liquid; Vibrating tube method
[2] = refractive index (Na D-line) (dimensionless); details: 298.15 K; 101.33 kPa; Liquid; Standard Abbe refractometry

mass density [1] [kg/m3]	refractive index [2]	SMILES
941.63 ± 6	1.3899 ± 0.0041	CC(C)C(=O)O [2-methylpropanoic acid]
807.96 ± 6	1.3941 ± 0.0041	CCCCO [butan-1-ol]
952.1 ± 6	1.3981 ± 0.0041	CCCC(=O)O [butanoic acid]
723.8 ± 6	1.3674 ± 0.004	CC(C)OC(C)C [diisopropyl ether]
791 ± 6	1.3281 ± 0.0041	CO [methanol]
	1.3324 ± 0.0041	O [water]
